In brackets after ≈: the same amount, converted by molar mass. Marks after values point to notes of the source that are not given here.
How the values were obtained:
Mtb CDC1551 = test: microbe, parasite or virus in culture; format: cell-based, Mycobacterium tuberculosis; conditions: Mycobacterium tuberculosis, CDC1551, 120 h
MRSA-1707 biofilms = test: Calgary Biofilm Device (CBD) assay; conditions: Staphylococcus aureus, read-out: MRSA-1707 MBC
HeLa cells = test: LDH release assay for HeLa cytotoxicity; conditions: read-out: HeLa Cell Cytotox. (IC50), 24-h, tested at 25, 50 and 100 μM
HepG2 cells = test: Alamar Blue cytotoxicity assay, HepG2; conditions: read-out: Hep G2 Cytotox. (IC50), 24-h
MRSE 35984 biofilms = test: Calgary Biofilm Device (CBD) assay; conditions: Staphylococcus epidermidis, MRSE, read-out: MRSE 35984 MBC
MRSA-1707 = test: MIC susceptibility assay (broth microdilution); conditions: 16 h; for MIC: Staphylococcus aureus, MRSA, read-out: MIC MRSA-1707, planktonic growth inhibition, 16 h, 37° C.
Protocol: (§1) (MIC values were further supported by spectrophotometric readings at OD600). The concentration range tested for each HP compound during this study was 0.05 to 50 μM. DMSO served as our vehicle and negative control in each microdilution MIC assay. DMSO was serially diluted with a top concentration of 0.5% v/v.

MRSA-44 = test: MIC susceptibility assay (broth microdilution); conditions: Staphylococcus aureus, 16 h, read-out: MIC MRSA-44
Protocol: as §1

J774 MΦ = test: Alamar Blue cytotoxicity assay, J774 macrophages; conditions: read-out: J774 MΦ Cytotox. (IC50), 24-h
human red blood cells = test: Hemolysis assay with red blood cells; conditions: human RBCs, 1 hour, 37° C.
Protocol: Hemolysis assays are used to determine the membrane-lysis activity of a compound, which is of particular interest to this work as membrane-lysing agents (e.g., QACs) can eradicate biofilms.
Cytotoxicity Assay against HEK-293 Cells.^48 The viability of HEK-293 cells was assessed by the MTT assay. The cells were cultured in DMEM medium containing 10% fetal bovine serum and 100 U/mL penicillin and streptomycin. The cells (10^4 cells/well) were seeded onto a 96-well plate and maintained at 37° C. in a humidified incubator under 5% CO2 overnight. […] After incubation at 37° C. for 72 hours, 10 μL of MTT (5 mg/mL) in PBS was added to each well and incubated for 4 hours, followed by the aspiration of the medium. Dimethyl sulfoxide (DMSO, 100 μL) was then added to each well to dissolve the MTT in the wells, and the plate was agitated for 1 hour. The optical density (OD) was measured at 570 nm using a UV/vis microplate spectrophotometer (BioTek). The percent inhibition was calculated as follows: Inhibition (%)=(1−test OD570/non-treated OD570)×100%. The data were analyzed by Origin. Hemolysis Assay with Red Blood Cells. […] The washing was repeated three times with the buffer. In 96-well plate, test compounds were added to the buffer from DMSO stocks. […] The plate was then incubated for 1 hour at 37° C. After incubation, the plate was centrifuged for 5 minutes at 3,500 rpm before 80 μL of the supernatant was transferred to another 96-well plate to obtain an optical density (OD) read at 405 nm. DMSO served as the negative control (0% hemolysis) while Triton X served as the positive control (100% hemolysis) in these experiments. The percent hemolysis was calculated as (OD405 of the compound treated RBCs−OD405 DMSO control)/(OD405 Triton X treated RBCs−OD405 buffer) from three independent experiments.

MRSE 35984 = test: MIC susceptibility assay (broth microdilution); conditions: 16 h; for MIC: Staphylococcus epidermidis, MRSE, read-out: MIC MRSE 35984
Protocol: as §1

VRE 700221 biofilms = test: Calgary Biofilm Device (CBD) assay; conditions: Enterococcus, read-out: VRE 700221 MBC
E. faecalis OG1RF = test: MIC susceptibility assay (broth microdilution); conditions: Enterococcus faecalis, 16 h, read-out: MIC E. faecalis OG1RF
Protocol: as §1

S. aureus 147 = test: MIC assay against clinical isolate; format: cell-based; conditions: Staphylococcus aureus, 147; clinical isolate; read-out: MIC S. aureus 147
S. aureus 129 = test: MIC assay against clinical isolate; format: cell-based; conditions: Staphylococcus aureus
S. aureus 156 = test: MIC assay against clinical isolate; format: cell-based; conditions: Staphylococcus aureus, 156, read-out: MIC S. aureus 156
MRSA 2 = test: MIC assay against clinical isolate; format: cell-based, S. aureus; conditions: Staphylococcus aureus
S. aureus 138 = test: MIC assay against clinical isolate; format: cell-based; conditions: Staphylococcus aureus
MRSA 1 = test: MIC assay against clinical isolate; format: cell-based, S. aureus; conditions: Staphylococcus aureus
[1] = pKa determination by UV-vis spectroscopy; format: physicochemical; conditions: UV-vis, 1:1 water:methanol phosphate buffers
Protocol: (c) pKa determination of select HP analogues.^36 Dissociation constants (pKa) for select HP analogues were determined using UV-vis spectroscopy and the Henderson-Hasselbalch equation. Buffers were prepared using potassium phosphate monobasic (KH2PO4) and sodium phosphate dibasic ([…]) in a 1:1 solution of water:methanol to achieve a pH range of 4.07 to 9.66 (ammonium hydroxide was added to prepare buffer pH over 9.80). Compounds were added from 10 mM stock solutions in dimethyl sulfoxide (25 μL) to 1975 μL of each buffer to each evaluate analogue to yield a final compound concentration of 125 μM. Full spectral scans were performed from 200 to 800 nm in 2 nm increments to determine λmax values for the protonated phenol (HA) and the deprotonated phenolate species (A^−). The change in absorption at each determined λmax in relation to pH was monitored in each buffer and plotted as absorbance versus pH for each species. The pKa was first estimated by determining the pH of the point of intersection of the two linear curves. The visual estimation was confirmed by plotting pH versus log [A^−/HA]. The resulting plot yielded a linear regression line with a Y-intercept corresponding to a calculated pKa value.

[2] = test system: MRSA, MRSE and VRE strains; test: MIC assays, summary statements over several Gram-positive strains
Protocol: as §1

[3] = planktonic growth inhibition, 37° C.

| Structure (SMILES) | MIC (Mtb CDC1551) | MBC (MRSA-1707 biofilms) | IC50 (HepG2 cells) | MBC (MRSE 35984 biofilms) | MIC (MRSA-1707) | MIC (MRSA-44) | IC50 (J774 MΦ) | % Hemolysis at 200 μM (human red blood cells) | MIC (MRSE 35984) | MIC (E. faecalis OG1RF) | also measured |
| --- | --- | --- | --- | --- | --- | --- | --- | --- | --- | --- | --- |
| Oc1c(Br)c(Cl)c(Br)c2nc3ccc(F)cc3nc12 [Compound 33, 2,4-Dibromo-3-chloro-8-fluorophenazin-1-ol] | 1.71 µM (≈ 0.695 µg/mL) | 12.5 µM (≈ 5.08 µg/mL) | > 200 µM | 12.5 µM (≈ 5.08 µg/mL) | 0.15 µM (≈ 0.061 µg/mL) | 0.2 µM (≈ 0.0813 µg/mL) | > 200 µM | ≤1% | – | – | IC50 (HeLa cells): > 25 µM; MIC MRSA-1707 (MRSA-1707; [3]): 0.15 µM (≈ 0.061 µg/mL) |
| Oc1c(Br)c(Cl)c(Br)c2nc3ccc(I)cc3nc12 [Compound 37, 2,4-Dibromo-3-chloro-8-iodophenazin-1-ol] | – | 12.5 µM (≈ 6.43 µg/mL) | – | 6.25 µM (≈ 3.21 µg/mL) | 0.15 µM (≈ 0.0772 µg/mL) | – | – | 3.0% | 0.3 µM (≈ 0.154 µg/mL) | 1.56 µM (≈ 0.802 µg/mL) | MBC (VRE 700221 biofilms): 4.69 µM (≈ 2.41 µg/mL) |
| CCSc1c(Br)c(O)c2nc3cccc(C)c3nc2c1Br [Compound 45, 2,4-Dibromo-3-(ethylthio)-6-methylphenazin-1-ol] | 1.69 µM (≈ 0.724 µg/mL) | 50 µM (≈ 21.4 µg/mL) | > 200 µM | 12.5 µM (≈ 5.35 µg/mL) | – | – | > 100 µM | 5.7% | – | 0.78 µM (≈ 0.334 µg/mL) | MIC (S. aureus 147): 0.47 µM (≈ 0.201 µg/mL); MIC (S. aureus 129): 0.47 µM (≈ 0.201 µg/mL); MIC MRSE 35984 (MRSE 35984; [3]): 0.30^a μM; MIC (S. aureus 156): 0.47 µM (≈ 0.201 µg/mL); MIC (MRSA 2): 0.63 µM (≈ 0.27 µg/mL); MIC (S. aureus 138): 0.47 µM (≈ 0.201 µg/mL); MIC (MRSA 1): 0.31 µM (≈ 0.133 µg/mL) |
| O=[N+]([O-])c1ccc(O)cc1 [4-nitrophenol, reference compound] | – | – | – | – | – | – | – | – | – | – | pKa [1]: 7.52 |
| Cc1ccc2nc3c(O)c(Br)c(Cl)c(Br)c3nc2c1C [Compound 30, 2,4-Dibromo-3-chloro-6,7-dimethylphenazin-1-ol] | 3.62 µM (≈ 1.51 µg/mL) | – | > 200 µM | 3.13 µM (≈ 1.3 µg/mL) | – | 0.08 µM (≈ 0.0333 µg/mL) | > 200 µM | ≤1% | ≤ 0.05 µM | 0.2 µM (≈ 0.0833 µg/mL) | MBC (VRE 700221 biofilms): 0.78 µM (≈ 0.325 µg/mL); MIC ([2]; read-out: MIC against MRSA, MRSE and VRE strains): 0.05 to 0.1 µM (≈ 0.0208 to 0.0417 µg/mL); MICs against all Gram-positive strains in the panel ([2]; result in words): sub-micromolar |
| Cc1ccc2nc3c(O)cc(Cl)cc3nc2c1C [Compound 20, 3-Chloro-6,7-dimethylphenazin-1-ol] | – | – | – | – | – | – | – | – | – | 12.5 µM (≈ 3.23 µg/mL) | – |
| Oc1cc(Cl)cc2nc3c(Oc4ccccc4)cccc3nc12 [Compound 22, 3-Chloro-6-phenoxyphenazin-1-ol] | – | – | – | – | 3.13 µM (≈ 1.01 µg/mL) | 3.13 µM (≈ 1.01 µg/mL) | – | – | 3.13 µM (≈ 1.01 µg/mL) | – | – |

— patent US12060334B2, “3-substituted phenazine derivatives as antimicrobial agents” (University of Florida Research Foundation, Incorporated, priority 2021, dated 2024)
